# Test results reported in US6492344B1, “Syndecan enhancer element and syndecan stimulation of cellular differentiation” (Biotie Therapies Corp., priority 1993, dated 2002).
# “Also recorded” adds a separate entry of the source.
# Assays:
# [1] = tested on: FGF-inducible Response Element (FiRE); test: FiRE CAT assay with AP-1 activating agents in stable 3T3NIH cells; assay type: cell-based, mouse; conditions: minimal promoter, agents known to activate AP-1
# Experimental: FIG. 24. […] Different agents known to induce fos-jun complexes and activate AP-1 driven promoters, were tested for FiRE activation in CAT assay with the minimal promoter transferred in stable 3T3NIH cells in the presence of protein kinase C activator (TPA, 10 mm), protein phosphatase 1 and 2 inhibitors (DA and calycalin A), a cAMP activator (forskolin), or a tyrosine phosphatase inhibitor (orthovanadate).
# Agents Activating AP-1 Are Not Sufficient for FiRE Activation. Since FiRE contains AP-1 transcription factors, whose activation is well characterized, we tested chemicals known to cause AP-1 dependent gene activation. These included the protein kinase C (PKC) activator 12-O-tetradecanoylphorpol-13-acetate (TPA), protein-phosphate-1 and -2 inhibitors okadaic acid and calyculin A, cAMP activator forskolin and tyrosine kinase phosphatase inhibitor orthovanadate (FIG. 24a).
# MCF-7 cells = test: Growth behavior of MCF-7 cells under estrogen and toremifene; assay type: cell-based, human; conditions: MCF-7 cells exposed to estrogen, then toremifene
# Experimental: (§1) The steroid-responsive human breast cancer cell line MCF-7 was used to study the expression of human syndecan under different growth conditions regulated by estrogen and anti-estrogen. Cells were plated at a density of 1.2×10^6 cells/100 mm of plastic culture dish and grown as monolayer cultures in 10 ml per dish of phenol red-free DMEM medium with 5% dextran/charcoal treated fetal calf serum (DS-FCS), 2 mM L-glutamine and 3 μg/ml insulin. […] The cells were cultured for 6 days, and the media were changed every second day. For RNA extraction, cells were washed in situ with PBS and scraped from the plates in 4 M guanidine isothiocyanate.
# [2] = tested on: syndecan-1 expression in MCF-7 cells; test: Syndecan mRNA expression in MCF-7 cells under estrogen and toremifene; assay type: cell-based, human; conditions: MCF-7 cells exposed to estrogen, then anti-estrogen treatment
# Experimental: as §1
# [3] = tested on: FGF-inducible Response Element (FiRE); test: pFiRE CAT reporter activation by growth factors in 3T3NIH cells; assay type: cell-based, mouse; conditions: pFiRE transfected 3T3NIH cells; 10 ng/ml growth factor (2 ng/ml TGF-β) or 5% FCS, 2 days
# Experimental: Each of these plasmids was transiently transfected into 3T3NIH cells, using the calcium phosphate precipitation method (Chen and Okayama, Mol. Cell Biol. 7:2745-2752 (1987)) as follows. For transient transfections NIH3T3 cells were plated at equal density on six-well plates (Falcon) two days before transfection. Plasmid DNA was transfected into cells by calcium phosphate method (Chen and Okayama, Mol. Cell Biol. 7:2745-2752 (1987)). A β-galactosidase expressing plasmid (pSV-β-galactosidase, Promega) was co-transfected with CAT constructs to monitor transfection efficiencies. Three parallel transfections were used in every assay. Directly after transfection growth factors were added, media change the next day and cells were harvested after two days. CAT activities were measured by liquid scintillation and β-galactosidase activities spectrophotometrically at 420 nm as described by Vihinen et al., J. Biol. Chem 268:17261-17269 (1993)). As a control, other samples of the cells transfected with each plasmid were treated with buffer without FGF-2 for the same time periods.
# For the gene expression analysis the fragments of the syndecan-1 upstream region were subcloned from mouse genomic clones into the XbaI site of the pCATProm vector in which a mouse syndecan-1 promoter region (−1310 to +140) was fused to the CAT reporter gene (Vihinen et al., J. Biol. Chem. 271:12532-12541 (1996)). The pX-HIIICAT plasmid was prepared by cloning HindIII-XhoI promoter fragment (−2400 to +140 bp) into the promoterless pCAT basic vector (Promega). For pXSp1 and 2 plasmids, SphI fragments −11.4 to −10.5 kb and −10.5 to −9.4 kb, respectively) were deleted from pXb6CAT (−11.6 to −9.4 kb). Constructs pXS2, pXB3 and pXX1 were generated by ligating SphI-EarI/blunt (−10.5 to −10.1 kb), EarI/blunt fragment (−10.1 to −9.8 kb) and EarI/blunt-XbaI (−9.8 to −9.4 kb) from pXSpI into SphI-AccI/blunt, AccI/blunt or XbaI-SphIlblunt sites, respectively, into the pCATProm vector. Blunt ended fragments were made by T4 polymerase (Promega). For FiRE and FiREREV a PstI-StyI/blunt fragment was subcloned into PstI-EcoRV or PstI-SmaI sites of the pBluescript vector and then transfected to Xba-SphI sites in pCATProm vector. These constructs were then used to transient transfect NIH3T3 cells as described supra, and CAT activity was measured.
# Effect of Various Growth Factors on Enhancer Activation in NIH3T3 Cells. Plasmid pFiRE was transfected into 3T3NIH cells as described, supra. The cells were starved in DMEM medium supplemented with 5% fetal calf serum to about 70% confluence. Fetal calf serum was then replaced with 2% carboxy-methyl-Sephadex eluted fetal calf serum (CMS) 12 hrs before adding the growth factors. Various growth factors in the same medium, 5% fetal calf serum (FCS) supplemented medium or a control containing the medium, without any added growth factors were incubated with the transfected cells for 2 days, and CAT activity was measured. The effect of 10 ng/ml of FGF-2, FGF-1, FGF-4, FGF-7 (KGF), EGF, IGF1, TGFα, IFNγ, and PDGF and 2 ng/ml TGF-β were tested. The human recombinant growth factors were purchased from Peprotech (FGF-1, -2, and -7), Boehringer (FGF-2) or from Calbiochem (PDGF) TGF-β was purchased from Sigma. The effect of the added growth factors and FCS on DNA synthesis was also tested by a 125-IdU incorporation assay. […] Radioactivity was measured using a gamma counter (Wallac).
# 3T3NIH cells = test: 125-IdU incorporation (DNA synthesis) assay in 3T3NIH cells; assay type: cell-based, mouse; conditions: pFiRE transfected 3T3NIH cells; 10 ng/ml growth factor (2 ng/ml TGF-β) or 5% FCS
# From the text: Effect of Various Growth Factors on Enhancer Activation in NIH3T3 Cells. Plasmid pFiRE was transfected into 3T3NIH cells as described, supra. The cells were starved in DMEM medium supplemented with 5% fetal calf serum to about 70% confluence. Fetal calf serum was then replaced with 2% carboxy-methyl-Sephadex eluted fetal calf serum (CMS) 12 hrs before adding the growth factors. Various growth factors in the same medium, 5% fetal calf serum (FCS) supplemented medium or a control containing the medium, without any added growth factors were incubated with the transfected cells for 2 days, and CAT activity was measured. The effect of 10 ng/ml of FGF-2, FGF-1, FGF-4, FGF-7 (KGF), EGF, IGF1, TGFα, IFNγ, and PDGF and 2 ng/ml TGF-β were tested. The human recombinant growth factors were purchased from Peprotech (FGF-1, -2, and -7), Boehringer (FGF-2) or from Calbiochem (PDGF) TGF-β was purchased from Sigma. The effect of the added growth factors and FCS on DNA synthesis was also tested by a 125-IdU incorporation assay. This cell proliferation assay was carried out by incubating cells for 4-6 hrs with 0.25 μCi/ml 5-[^125I]iodo-2′-deoxyuridine (IdU, Amersham), washed several times with PBS and solubilized in 1 M NaOH. Radioactivity was measured using a gamma counter (Wallac).
# syndecan-1 gene = test: Syndecan-1 mRNA quantification in 3T3NIH cells exposed to FGF-2; assay type: cell-based, mouse; conditions: TGF-β alone
# From the text: Northern Blot—RNA was isolated from 3T3 and NMuMG cells using 4 M guanidine isothiocyanate and CsCl density centrifugation (Chirgwin et al., Biochemistry 18:5294-5299 (1979)). RNA samples were size-separated on a 1% agarose formaldehyde gel, transferred to a GeneScreen Plus™ membrane (New England Nuclear) and hybridized with a multi-prime (Amersham) labeled partial cDNA clone for mouse syndecan (PM-4) (Saunders et al., J. Cell Biol. 108:1547-1556 (1989)). After hybridization, the membrane was washed in 2×SSC and 1.0% SDS at 65° C. (high stringency conditions). For rehybridization with glyceraldehyde-3-phosphate-dehydrogenase (GAPDH; Fort et al., Nucleic Acid Res. 13:1431-1442 (1985)), the bound PM-4 probe was removed as recommended by the manufacturer of the filter (NEN).
# Following incubation with FGF-2, syndecan MRNA was isolated and quantified. Control incubations without FGF-2 were also performed. Syndecan mRNA was isolated and quantified […] FGF-2 treatment following 6, 12, and 24 hr incubations. The quantification of syndecan mRNA production can be seen in FIG. 11a. GAPDH mRNA was used as a loading control. […] The enhancement appears to be maximal at about 6 hrs of FGF-2 incubation, and decreases thereafter. In the Figure, two individual exposures for each time point are presented.
# [4] = tested on: FGF-inducible Response Element (FiRE); test: FiRE / Syn Prom CAT reporter in MCA3D keratinocytes; assay type: cell-based; conditions: MCA3D mouse keratinocytes transfected with FiRE construct
# Experimental: The cells used for proximal promoter constructs were 3T3 NIH, S115 (either hormone-treated or not) and nMuMG cells. For enhancer constructs we used 3T3 NIH cells grown in 2% CMS medium and MCA 3D cells grown in Ham's medium. 3T3 NIH cells were also used to test the effect of growth factors in 2% CMS medium with 10 ng/ml FGF-2 and 2ng/ml TGFβ-1. MCA 3D cells were used to test the effect of 10 ng/ml KGF.
# FiRE is Induced Selectively by FGF-7 in Keratinocytes. The ability of FiRE to enhance transcription was tested in the mouse keratinocyte cell line MCA3D (Kuliz-Martin et al., Carcinogenesis 4:1367-1377 (1983)). MCA3D cells were transfected as described supra for mouse NIH3T3 cells. Following transfection, the cells were treated with fetal calf serum, PDGF, FGF-1, FGF-2, and FGF-7 as described supra for the NIH3T3 cells.
Compound,FiRE activation (CAT assay) [1],FiRE enhancer activation (CAT reporter activity) [3],DNA synthesis / cell proliferation (125-IdU incorporation) (3T3NIH cells),further results
COC[C@@H]([C@H](O)[C@H](O)C(=O)NCC[C@H](C)c1nc(/C=C/C[C@@H]2O[C@]3(C[C@@H](O)[C@@H]2C)O[C@H]([C@H](C[C@H](O)[C@H](C)[C@H](O)[C@H](C)/C=C(C)/C(C)=C/C=C/C(C)=C\C#N)OC)[C@H](OP(=O)(O)O)C3(C)C)co1)N(C)C [calyculin A],"none of the other compounds known to induce immediate early genes fos and jun and AP-1 driven promoters, were able to activate FiRE",–,–,–
[O]=[V]([O-])([O-])[O-] [orthovanadate],resulted in activation of FiRE,–,–,–
CN(C)CCOc1ccc(/C(=C(/CCCl)c2ccccc2)c2ccccc2)cc1 [toremifene],–,–,–,growth behavior of cells (MCF-7 cells): aided the cells in maintaining their normal growth behavior; syndecan-1 expression [2]: reverse their lowered syndecan expression; also recorded: restored syndecan-1 expression to levels close to that found in cells not exposed to estrogen
C=C1[C@@H](O)[C@@H]2O[C@]3(CC[C@H](/C=C/[C@@H](C)[C@@H]4CC(C)=C[C@@]5(O[C@H](C[C@@](C)(O)C(=O)O)CC[C@H]5O)O4)O3)CC[C@H]2O[C@@H]1[C@@H](O)C[C@H](C)[C@H]1O[C@@]2(CCCCO2)CC[C@H]1C [okadaic acid],"none of the other compounds known to induce immediate early genes fos and jun and AP-1 driven promoters, were able to activate FiRE",–,–,–
"EGF: epidermal growth factor (NSDSECPLSHDGYCLHDGVCMYIEALDKYACNCVVGYIGERCQYRDLKWWELR; Epidermal growth factor; UniProt P01133 971-1023, looked up)",–,no significant enhancer activation; also recorded: no effect on enhancer activity,significant increase in DNA synthesis; also recorded: enhanced cell proliferation to a similar extent as FGF-2,–
TGF-β: transforming growth factor beta; porcine TGFβ1,–,no significant enhancer activation,significant increase in DNA synthesis,activation of the syndecan-1 gene (syndecan-1 gene): cannot activate the syndecan-1 gene
IGF: growth factor IGF1 tested at 10 ng/ml,–,no effect on enhancer activity,enhanced cell proliferation to a similar extent as FGF-2,–
"FGF-1: human recombinant growth factor, FGF family member",–,did not activate or suppress; also recorded: lower effect,significant increase in DNA synthesis,FiRE activation [4]: failed to activate FiRE; also recorded: did not activate FiRE
"CCCCCCCCCCCCCC(=O)O[C@@H]1[C@@H](C)[C@@]2(O)[C@@H](C=C(CO)C[C@]3(O)C(=O)C(C)=C[C@@H]23)[C@H]2C(C)(C)[C@]12OC(C)=O [TPA, 12-O-tetradecanoylphorpol-13-acetate]","none of the other compounds known to induce immediate early genes fos and jun and AP-1 driven promoters, were able to activate FiRE; also recorded: do not activate",–,–,–
PDGF,–,no significant enhancer activation; also recorded: no effect on enhancer activity,significant increase in DNA synthesis; also recorded: enhanced cell proliferation to a similar extent as FGF-2,FiRE activation [4]: failed to activate FiRE; also recorded: did not activate FiRE
